Experiment [1] has as its system panicgrass (Egyptian panicgrass, Kissimmee 'Knotgrass'). As to the kind of experiment: Example 7: greenhouse mesocosm selectivity trial, 60-day exposure, aboveground shoot biomass. The conditions noted are these: total parts per billion, non-linear regression. In kind it is in vivo, Paspalidium geminatum. The source says:
(§1) Five different native aquatic plants were acquired from a Florida supplier (Aquatic Plants of Florida, Sarasota, Fla.). These species were jointed spikerush (Eleocharis interstincta), spatterdock (Nuphar advena), soft-stem bulrush (Scirpus validus), and maidencane (Panicum hemitomon), and tapegrass (Vallisneria americana). The final native species in the trial—Egyptian panicgrass or Kissimmee ‘Knotgrass’ (Paspalidium geminatum)—and fluridone-resistant hydrilla were collected from West Lake Tohopekaliga (Osceola County, FL). Transplanted tissue for each native species included both young fresh shoot growth and a portion of root stock/rhizome. Hydrilla was planted as 30 cm sections of fresh apical shoot growth. All plants were transplanted into commercial retail topsoil amended with slow-release granular 14-14-14 fertilizer at rate of 2.5 g fertilizer per kg soil. Spatterdock rhizomes were transplanted into 11.4L plastic garden pots, while all other species were transplanted into 1.9-L pots. Soil in each pot was capped with a layer of sand. […]
(§2) Three weeks after transplanting, herbicide stock solutions were used to apply either fluridone or penoxsulam alone or in combination. […] Four replicate pots of each species were harvested at time of treatment to quantify pre-treatment aboveground biomass. […]

A further experiment deals with jointed spikerush. The experiment is described as above. It is filed as in vivo, Eleocharis interstincta. The conditions noted are these: total parts per billion, non-linear regression.
Source text: as §1, §2

A further experiment deals with soft-stem bulrush. The experiment is described as above. In kind it is in vivo, Scirpus validus. Particulars: total parts per billion, non-linear regression.
Source text: as §1, §2

Experiment [2] has as its system Lake Okahumpka hydrilla (fluridone resistant biotype). In words: Example 1: hydrilla in 14 L cylinders, 25 days of exposure, total stem length and fresh weight. It is filed as in vivo, Hydrilla verticillata. The conditions noted are these: 12 ppb (combination 6 ppb each). The source says:
(§3) Apical sections of hydrilla were collected from Rainbow River and Lake Okahumpka, Fla. Hydrilla in Lake Okahumpka is known to have developed increased tolerance to fluridone (FRH). The biotype from Rainbow River has never been exposed to fluridone and is presumably fluridone susceptible. Apical sections were planted in potting soil amended with Osmocote fertilizer in small pots (13.5 cm length×3.75 cm diameter). A 2.54 cm sand layer was placed over the top of the potting soil. Pots containing each biotype of hydrilla were placed into 14 L acrylic cylinders and allowed to establish slight growth prior to treatment. Cylinders were then treated with penoxsulam (P) or fluridone (F) at 12 ppb, and fluridone+penoxsulam (1:1 ratio) at 6 ppb (3 ppb each) and 12 ppb (6 ppb each). All treatments were replicated 4 times. After 25 days of exposure, plants were harvested and total stem length and fresh weights were measured.

The next experiment has as its system spatterdock. As to the kind of experiment: Example 7: greenhouse mesocosm selectivity trial, 60-day exposure, aboveground shoot biomass. It is filed as in vivo, Nuphar advena. Particulars: total parts per billion, non-linear regression.
Source text: as §1, §2

For another experiment, the system named is maidencane. Described as above. Particulars: total parts per billion, non-linear regression. In kind it is in vivo, Panicum hemitomon.
Source text: as §1, §2

Experiment [3] deals with Lake Cypress hydrilla (fluridone resistant biotype). As to the kind of experiment: Example 2: hydrilla in 14 L cylinders, c.a. 30 days exposure, plant weights. It is filed as in vivo, Hydrilla verticillata. The conditions noted are these: for biomass reduction: 6 ppb. The source says: (§4) Hydrilla was collected from three sources in Florida; two representing fluridone resistant biotypes (Lake Okahumpka and Lake Cypress) and one fluridone susceptible biotypes (CAIP). Apical sections containing a single meristem were planted in small pots (13.5 cm length×3.75 cm diameter) containing potting soil and amended with Osmocote fertilizer. Each biotype were placed into 14 L cylinders and allowed to establish growth for 6-days prior to treatment. Treatments were replicated three times and included: controls, penoxsulam 6 and 12 ppb; fluridone 6 and 12 ppb; combinations of fluridone+penoxsulam (1:1 ratio) at 12 ppb (6 ppb each). Plants were exposed for c.a. 30 days and then harvested to determine plant weights.

The test system of experiment [4] is Lake Okahumpka hydrilla (fluridone resistant biotype). Described as above. In kind it is in vivo, Hydrilla verticillata. Particulars: for biomass reduction: 6 ppb.
Source text: as §4

The subject of experiment [5] is CAIP hydrilla (fluridone susceptible biotype). The experiment is described as above. It is filed as in vivo, Hydrilla verticillata. The conditions noted are these: 6 ppb.
Source text: as §4

A further experiment has as its system tapegrass. In words: Example 7: greenhouse mesocosm selectivity trial, 60-day exposure, aboveground shoot biomass. The conditions noted are these: total parts per billion, non-linear regression. It is filed as in vivo, Vallisneria americana.
Source text: as §1, §2

Experiment [6] deals with Hydrilla (FR), fluridone-resistant hydrilla. Described as above. In kind it is in vivo, Hydrilla verticillata. The conditions noted are these: total parts per billion, non-linear regression.
Source text: as §1, §2

The subject of a further experiment is target plant. The conditions noted are these: Sonar A.S. label; cited from earlier work.
In experiment [7] the test system is fluridone susceptible hydrilla biotype. As to the kind of experiment: Example 3: hydrilla in 14 L cylinders, 56 days exposure, dry weights. Particulars: 3 ppb. It is filed as in vivo, Hydrilla verticillata. The source says: (§5) Hydrilla was collected from two sources in Florida representing a fluridone resistant biotype (Lake Cypress) and a fluridone susceptible biotype. Apical sections containing a single meristem were planted in small pots (13.5 cm length×3.75 cm diameter) containing potting soil and amended with Osmocote fertilizer. Each biotype were placed into 14 L cylinders and allowed to establish growth prior to treatment. Treatments were replicated three times and included: controls, penoxsulam or fluridone at 3 and 6 ppb; combinations of fluridone+penoxsulam (1:1 ratio) at 6 ppb (3 ppb of each). Plants were exposed for 56 days and then harvested to determine dry weights. At 14 days after treatment (DAT) net photosynthesis from exposed plant tissue was measured.

In experiment [8] the test system is fluridone resistant hydrilla biotype (Lake Cypress). The description is as above. In kind it is in vivo, Hydrilla verticillata. The conditions noted are these: 3 ppb.
Source text: as §5

For experiment [9], the system named is hydrilla. Particulars: literature; cited from earlier work.
Experiment [10] relates to Rainbow River hydrilla (fluridone susceptible). As to the kind of experiment: Example 1: hydrilla in 14 L cylinders, 25 days of exposure, total stem length and fresh weight. It is filed as in vivo. The conditions noted are these: Hydrilla verticillata, 600 h, 12 ppb (combination 6 ppb each), read-out: stem length inhibited compared to control plants.
Source text: as §3

Experiment [11] has as its system hydrilla. As to the kind of experiment: Contact time of penoxsulam alone under operational field use. In kind it is in vivo, Hydrilla verticillata.
The next experiment relates to Eurasian watermilfoil. As to the kind of experiment: Example 5: Eurasian watermilfoil in 12 L tanks, 40 day exposure, root and shoot dry weights. It is filed as in vivo. Particulars: 75 ppb; 40 days. The source says:
Apical sections (12 to 15 cm in length) of Eurasian watermilfoil (EWM) were taken from Sweetwater Lake, Ind. and from culture and planted into small pots (13.5 cm length×3.75 cm diameter) containing Wallace Farm® topsoil amended with 14-14-14 slow release Osmocote® fertilizer (˜2.5 g Osmocote/kg soil). Approximately 5 to 7 cm of the apical section extended above the sediment at planting, and a sand cap was placed over the potting soil (˜2 cm deep). Plants were then transferred to a 12 L acrylic tanks filled with well water. Plants were allowed to grow for 7 days before the following treatment was initiated in triple replicate:
Plants were harvested at 40 days. At harvest, plants were rinsed free of algae, roots and shoots were separated, and placed in paper sacks in a drying oven for 4 days at 70° C. temperature, and dry weights were determined (FIG. 6).

Turning to “1-methyl-3-phenyl-5-3-(trifluoromethyl)phenyl-4(1H)-pyridinone [Fluridone]”, the “Calculated EC50 on shoot biomass” value in experiment [1] is listed as 14.4 ppb; in the experiment with jointed spikerush, 28.3 ppb; with soft-stem bulrush, 5.3 ppb; with spatterdock, 2.5 ppb; in the experiment with maidencane, 4.4 ppb; with tapegrass, 4.4 ppb. Besides, the “Calculated EC50 on shoot biomass” value in experiment [6] is 10.1 ppb. In experiment [2], the “effect on fluridone tolerant biotype (stem length, biomass), in words” value is given as “little effect”. For the same compound, the “stem length inhibited compared to control plants” value in experiment [2] is around 10%. Also, the biomass reduction result in experiment [3] is “minimal affect”; in experiment [4], “minimal affect”; in experiment [5] it was 60%. Moreover, the “effect on biomass, in words” value in experiment [3] (up to 12 ppb) and in [4] (up to 12 ppb) was “generally not affected” in each case. Besides, the “minimum time maintained in contact with a target plant” value with target plant is reported as at least 45 days. For the same compound, the “reduction in biomass compared to controls” value in [7] is listed as around 50%; in [8] it was “no effect”.
Consider `O=C(O)C1C2CCC(O2)C1C(=O)O` (centres unmarked) [Endothall, 7-oxabicyclo[2.2.1]heptane-2,3-dicarboxylic acid], for which the “contact with hydrilla to achieve effective control” value in the experiment on hydrilla [9] is given as “less than 72 hours”.
In the case of `COc1cnc(OC)n2nc(NS(=O)(=O)c3c(OCC(F)F)cccc3C(F)(F)F)nc12` [Penoxsulam], the inhibition at 0.012 ppm is 50 to 60% in experiment [10] and around 40% in experiment [2] (Hydrilla verticillata, 600 h, read-out: stem length inhibited compared to control plants). In addition, the “Calculated EC50 on shoot biomass” value in experiment [1] is on record as 267.6 ppb; in the experiment on jointed spikerush, 12.8 ppb; in the experiment on soft-stem bulrush, 8.9 ppb; in the experiment on spatterdock it was 12.5 ppb; in the experiment with maidencane, 52.5 ppb; with tapegrass, 9.6 ppb. Further, in experiment [6], the “Calculated EC50 on shoot biomass” value is recorded as 4.4 ppb. Besides, the “contact time to achieve full hydrilla control” value in the experiment on hydrilla [11] is recorded as “greater than 4 months”. The biomass reduction in experiment [3] is reported as 57%; in experiment [4], 53%; in experiment [5], 63%. Also, the “reduction in biomass compared to controls” value in experiment [7] and in experiment [8] was around 40% throughout.
On to `O=C(O)COc1nc(Cl)c(Cl)cc1Cl` [Triclopyr, 3,5,6-trichloro-2-pyridyloxyacetic acid], for which, in the experiment with Eurasian watermilfoil, the “above ground biomass reduction” value was found to be 96% and the “below ground biomass reduction” value is 74%.

These data come from patent US20090298691A1, “METHODS AND COMPOSITIONS FOR CONTROL OF AQUATIC WEEDS USING HERBICIDAL COMBINATIONS WITH FLURIDONE” (priority 2008, published 2009).
